Assay results from patent publication US5213962A, “Purification, detection and methods of use of protease Nexin-2” (The Regents of the University of California, priority 1992, dated 1993).

Test system: platelets
Assay: Secretion of PN-2/βAPP from platelets after activation by agonists
Assay type: cell-based
Conditions: freshly washed platelets, 10 minutes
Procedure: Secretion on PN-2/βAPP from platelets after activation by the agonists collagen or thrombin was studied. Briefly, fresh platelets washed by albumin density gradient centrifugation and gel filtration were incubated for 30 minutes at 37° C. in the absence or presence of the combined metabolic inhibitors antimycin A (15 μg/ml), 2-deoxy-D-glucose (30 mM), and D-gluconic acid δ-lactone (10 mM). The platelets were then placed into a cuvette 37° C. water bath with stirring at 1,200 rpm, and collagen (20 μg/ml or α-thrombin U/ml) was added. After 10 minutes, the samples were centrifuged at 12,000×g for 4 minutes and supernatants were collected. Aliquots were removed and quantitated for PN-2/βAPP by incubation with ^125 I-EGF BP and analysis of complex formation by SDS-PAGE and autoradiography as in Example 15. Autoradiograms were aligned with dried gels; ^125 I-EGF BP:PN-2/βAPP complexes were located, excised and quantitated in a […]. Aliquots were also quantitated for platelet markers as follows: total adenine nucleotide (ADP/ATP) secretion was measured by the method of Homsen et al., Anal. Biochem., 46:489 (1972); low affinity platelet factor 4 (LA-PF4) secretion was quantitated by the method of Rucinski et al., Blood, 53:47 (1979); and cytosolic lactate dehydrogenase (LDH) loss was assessed by the procedure of Wroblewski and Ladue, Proc. Soc. Exper. […]

Row | Substance | secretion of total PN-2/βAPP present in the platelets
1 | thrombin | approximately one-half
2 | collagen | approximately one-half
